According to patent US6558954B1, “Phenotypic conversion of cells mediated by external guide sequences” (priority 1996, dated 2003):

Test system: bacterial species tested
Assay: TMP-mediated delivery of EGS, overall statement for the bacterial species tested
Assay type: cell-based
Conditions: E. coli, P. aeruginosa, S. aureus, B. subtilis (FIG. 2)
Source text: The results in Example 1 indicate enhanced delivery of a nucleic acid to the Gram negative organism E. coli. […] Staphylococcus aureus (Gram positive), Pseudomonas aeruginosa (Gram negative) and Bacillus subtilis (Gram positive) were obtained from the ATCC and grown overnight. The bacteria were washed with TB and resuspended to give an OD of 1.0. TMP/EGS complexes were set up as in Example 1 and delivered to the cells.
The cells were washed three times with TB and then treated with lysozyme solutions with EDTA (for Gram negative) or without EDTA (for Gram positive) according to the protocol of Merchant et al., J. Photochem. Photobiol. B: Biol. 32:153-157 (1996). The amount of EGS present in the cell pellet and the cell wall fraction was calculated following scintillation counting.

C[n+]1ccc(-c2c3nc(c(-c4cc[n+](C)cc4)c4ccc([nH]4)c(-c4cc[n+](C)cc4)c4nc(c(-c5cc[n+](C)cc5)c5ccc2[nH]5)C=C4)C=C3)cc1 [TMP, tetra meso (n-methyl 4-pyridyl)porphine]
ability of TMP to deliver EGS: able to deliver EGS to the bacterial species tested
